Results: patent US8304234B2, “Compositions and methods for delivery of genetic material” (The Trustees of the Universtiy of Pennsylvania, priority 1993, dated 2012)

B1: GA733 protein: GA733 protein administered to control animals (protein, UniProt P16422 24-314, looked up)
Epithelial cell adhesion …: QEECVCENYKLAVNCFVNNNRQCQCTSVGAQNTVICSKLAAKCLVMKAEMNGSKLGRRAKPEGALQNNDGLYDPDCDESGLFKAKQCNGTSMCWCVNTAGVRRTDKDTEITCSERVRTYWIIIELKHKAREKPYDSKSLRTALQKEITTRYQLDPKFITSILYENNVITIDLVQNSSQKTQNDVDIADVAYYFEKDVKGESLFHSKKMDLTVNGEQLDLDPGQTLIYYVDEKAPEFSMQGLKAGVIAVIVVVVIAVVAGIVVLVISRKKRMAKYEKAEIKEMGEMHRELNA

How the values were obtained:
[1] = test system: tumor cells transfected with DNA encoding neu; assay: Tumor challenge model, tumor cells transfected with DNA encoding neu
Excerpt: In experiments designed to compare the immunogenic response elicited by genetic vaccination and protein vaccination, animal models were designed using tumor cells that specifically express a foreign target protein. Three immune competent mouse models have been developed which express foreign antigens. Three clonal tumor cell lines which are derived from the Balb/c mouse strain are used. […] Subclones have been selected which can display foreign antigens in an unrecognized form. […] Using these models, the immune response elicited by genetic vaccination against an antigen can be measured.
A DNA construct was designed to test the effectiveness of a genetic vaccine against human p185neu in mice. […] The animal model used was described above. Tumor cells were transfected with DNA encoding neu, confirmed to express the protein and implanted into the animal. Controls included untransfected tumor lines.
Controls included unvaccinated animals and animals administered the p185neu protein.

[2] = test system: tumor cells transfected with DNA encoding GA733; assay: Tumor challenge model, tumor cells transfected with DNA encoding GA733
Excerpt: Using these models, the immune response elicited by genetic vaccination against an antigen can be measured.
A DNA construct was designed to test the effectiveness of a genetic vaccine against human GA733 in mice. […] The animal model used was described above. Tumor cells were transfected with DNA encoding GA733, confirmed to express the protein and implanted into the animal. Controls included untransfected tumor lines.
Genetically immunized animals were vaccinated with plasmid pGA733-2, described in Example 14, following the method described above. Controls included unvaccinated animals and animals administered the GA733 protein.

| Molecule | effect on transfected tumors ([1]; neu-transfected tumors, vaccinated mice) | effect on mortality ([1]; vaccinated mice bearing tumors) | effect on transfected tumors ([2]; GA733-transfected tumors, vaccinated mice) | effect on mortality ([2]; vaccinated mice bearing tumors) |
| --- | --- | --- | --- | --- |
| p185 protein: p185neu protein administered to control animals | some reduction in tumor size | no effect on mortality | – | – |
| B1 | – | – | some reduction in tumor size | no effect on mortality |
